# Measurements as given in BindingDB's records for doi:10.1016/s0960-894x(01)00477-2 (Section De Chimie De L'Universit&#163, 2001).
# Assays:
# [1] = Inhibitory activity towards Alpha-mannosidase from Almond
# [2] = as above; remark: listed apart in the source
# [3] = Inhibitory activity towards Alpha-mannosidase from Jack bean
# [4] = Inhibitory activity towards Beta-Glucosidase from Almond
# [5] = as above; remark: listed apart in the source
# [6] = Inhibitory activity towards Alpha-mannosidase from jack bean
# [7] = Inhibitory activity towards Alpha-mannosidase from Jack bean; remark: listed apart in the source
# [8] = Inhibitory activity towards Beta-Glucosidase from Almond; remark: listed apart in the source
# [9] = as above; remark: listed apart in the source
# [10] = Inhibitory activity towards Alpha-mannosidase from Almond; remark: listed apart in the source
Compound,Ki [3],IC50 [7],IC50 [8],further results
"OC1CNC(CNCc2cccs2)C1O (stereo not drawn) [2-{[(Thiophen-2-ylmethyl)-amino]-methyl}-pyrrolidine-3,4-diol]",26 µM,,,IC50 [1]: 350 µM; Ki [2]: 98 µM
OCC(O)[C@H]1NC[C@H](O)[C@@H]1O (stereo partly drawn),,,,Ki [4]: 53 µM; IC50 [5]: 120 µM; IC50 [6]: 800 µM
"C[C@@H](NCC1NCC(O)C1O)c1ccccc1 (stereo partly drawn) [2-[((R)-1-Phenyl-ethylamino)-methyl]-pyrrolidine-3,4-diol]",170 µM,440 µM,,
"OC1CNC(CNCc2ccccc2)C1O (stereo not drawn) [2-(Benzylamino-methyl)-pyrrolidine-3,4-diol]",,,370 µM,
"CC(NCC1NCC(O)C1O)C(O)(c1ccccc1)c1ccccc1 (stereo not drawn) [2-[(2-Hydroxy-1-methyl-2,2-diphenyl-ethylamino)-methyl]-pyrrolidine-3,4-diol]",170 µM,,550 µM,IC50 [6]: 440 µM
"CC(=O)N(Cc1ccccc1)CC1NCC(O)C1O (stereo not drawn) [N-Benzyl-N-(3,4-dihydroxy-pyrrolidin-2-ylmethyl)-acetamide]",,,430 µM,Ki [4]: 220 µM
"OC1CNC(CNCc2ccco2)C1O (stereo not drawn) [2-{[(Furan-2-ylmethyl)-amino]-methyl}-pyrrolidine-3,4-diol]",,,140 µM,Ki [9]: 12 µM
"OC1CNC(CNC2CCCC2)C1O (stereo not drawn) [2-Cyclopentylaminomethyl-pyrrolidine-3,4-diol]",,,500 µM,IC50 [6]: 560 µM
"NCC1NCC(O)C1O (stereo not drawn) [2-Aminomethyl-pyrrolidine-3,4-diol]",53 µM,170 µM,,IC50 [10]: 1000 µM
"OC1CNC(CNCn2ccnc2)C1O (stereo not drawn) [2-{[(Imidazol-1-ylmethyl)-amino]-methyl}-pyrrolidine-3,4-diol]",,700 µM,420 µM,IC50 [10]: 570 µM
"OC1CNC(CNCC2CCN(Cc3ccccc3)CC2)C1O (stereo not drawn) [2-{[(1-Benzyl-piperidin-4-ylmethyl)-amino]-methyl}-pyrrolidine-3,4-diol]",,700 µM,430 µM,
"OC(O)CC1NCC(O)C1O (stereo not drawn) [2-(2,2-Dihydroxy-ethyl)-pyrrolidine-3,4-diol]",80 µM,180 µM,,
